Reference: US11572373B2, “Maytansinoid-based drug delivery systems” (LADRX CORPORATION, priority 2017, dated 2023)
Read-outs that look alike come from different tables or passages of the source. Marks after values point to notes of the source that are not given here.

Key:
[1] = system: human tumor xenograft models; assay: Antitumor activity in human tumor xenograft mice models; assay type: in vivo; conditions: five human tumor xenograft models in nude mice, i.v. on day 1, 8, 15, and 22
Source text: This included starting tumor volumes in the range of approximately 80-110 mm^3 but also initial starting tumor volumes of up to approximately 400 mm^3. Furthermore, in most cases therapy with albumin-binding maytansinoids 30 and 31 induced long-term remissions and a decrease in Relative Tumor Volume (RTV). […] Experimental procedure and the results in the tumor-bearing mice models are described in detail in Examples 11-19 and FIGS. 3-16.
Female immunodeficient NMRI nude mice, from Charles River, received unilateral tumor implants subcutaneously in the left flank while under isoflurane anesthesia with human cancer tumors until tumors were palpable and had reached a volume of 80-200 mm^3 (unless otherwise stated).
Animals were kept in cages, the temperature inside the cages maintained at 25±1° C. with a relative humidity of 45-65% and an air change rate in the cage of 60-fold per hour. They were kept under a 14 h light: 10 h dark, artificial light cycle. The animals were fed with autoclaved Teklad Global 19% Protein Extruded Diet (T.2019S.12) from Envigo RMS SARL and had access to sterile filtered and acidified (pH 2.5) tap water, which was changed twice weekly. Feed and water were provided ad libitum. […] Animals were routinely monitored twice daily on working days and daily on Saturdays and Sundays. […] Relative body weights (RBW) of individual animals were calculated by dividing the individual absolute body weight on day X (BWx) by the individual body weight on the day of randomization multiplied by 100%. The tumor volume was determined by a two-dimensional measurement with calipers on the day of randomization (day 0) and then twice weekly. Tumor volumes were calculated according to the following equation: Tumor Vol [mm^3]=1 [mm]×w^2 [mm^2]×0.5, where “1” is the length and “w” is width of the tumor. The relative volume of an individual tumor on day X (RTVx) was calculated by dividing the absolute individual tumor volume [mm^3] of the respective tumor on day X (Tx) by the absolute individual tumor volume of the same tumor on the day of randomization multiplied by 100%. […]

[2] = In vitro cytotoxicity in different cell lines using the CellTiter-Blue Cell Viability Assay; assay type: cell-based, human; conditions: Homo sapiens; geometric mean over the n cell lines tested, 96 h treatment, CellTiter-Blue; read-out: Geomean IC50
[3] = Stability and release kinetics of maytansinoid-HSA conjugates in buffer solution at pH 4.0 and pH 7.4; assay type: physicochemical; conditions: maytansinoid-HSA conjugate, PBS pH 7.4, 37° C.
Experimental: For preparing HSA conjugates of albumin-binding maytansinoids, HSA (200 μM: 361.8 μL, 1078 μM free Cys34; 100 μM: 180.9 μL, 1078 μM free Cys34) was diluted with PBS buffer (4 mM sodium phosphate, 150 mM NaCl, pH 7.4) (200 μM: 678.2 μL; 100 μM: 859.1 μL) and DMSO (200 μM: 130.0 μL; 100 μM: 195.0 μL) and incubated in a heating block at 37° C. for 30 minutes. The albumin-binding maytansinoid was added as a 2 mM stock solution in DMSO (200 μM: 130.0 μL; 100 μM: 65.0 μL) to the preincubated HSA sample to produce a 200 μM or 100 μM solution of maytansinoid-prodrug and 300 μM or 150 μM of free Cys34. The mixture having a pH of 7.4 was allowed to react for 10 min at 37° C. and was then analyzed hourly for 24 hours by RP-HPLC (Phenomenex Aeris WP XB-C18, 3.6 μm, 250×4.6 mm).
For studying the release kinetics at pH 4.0 the mixture was acidified with a mixture of 50 mM sodium acetate buffer pH 3.0 (200 μM: 119.3 μL; 100 μM: 125.2 μL) and 1 M HCl (200 μM: 12.7 μL; 100 μM: 6.8 μL) to reach pH 4.0. The mixture was subsequently analyzed hourly for 24 hours by RP-HPLC (Phenomenex Aeris WP XB-C18, 3.6 μm, 250×4.6 mm).
The following RP-HPLC conditions were used: Phenomenex Aeris WP XB-C18 3.6 μm, 250×4.6 mm; eluent A (100% 20 mM Tris buffer pH 8.0) and eluent B (90:10, MeCN: water) eluting with a gradient of eluent B (25% 0-0.5 min, 25-35% 0.5-2.5 min, 35-85% 2.5-16 min, 85-95% 16-17 min, 95% 17-20 min, 95-25% 20-25 min, 25% 25-30 min, flow rate 1.0 mL/min). Column oven temperature 37° C.; autosampler temperature 37° C.; 20 μL of injection volume.
To quantify the percentage of free drug released, standard curves of the free maytansinoids were prepared at different concentrations (200 μM, 100 μM, 50 μM, 25 μM and 12.5 μM). The area under the curve (AUC) was determined at 250 nm.

albumin = biological target: T1, albumin (Homo sapiens, UniProt P02768); assay: in vitro; assay type: in vitro ADME; conditions: 37° C., 12.0 μM, read-out: % bound (converted)
T1 construct: tissue Zen-Bio; host or cells: pooled human whole blood (K2EDTA, 36 donors) and plasma prepared from it
T1 sequence (P02768 25-609): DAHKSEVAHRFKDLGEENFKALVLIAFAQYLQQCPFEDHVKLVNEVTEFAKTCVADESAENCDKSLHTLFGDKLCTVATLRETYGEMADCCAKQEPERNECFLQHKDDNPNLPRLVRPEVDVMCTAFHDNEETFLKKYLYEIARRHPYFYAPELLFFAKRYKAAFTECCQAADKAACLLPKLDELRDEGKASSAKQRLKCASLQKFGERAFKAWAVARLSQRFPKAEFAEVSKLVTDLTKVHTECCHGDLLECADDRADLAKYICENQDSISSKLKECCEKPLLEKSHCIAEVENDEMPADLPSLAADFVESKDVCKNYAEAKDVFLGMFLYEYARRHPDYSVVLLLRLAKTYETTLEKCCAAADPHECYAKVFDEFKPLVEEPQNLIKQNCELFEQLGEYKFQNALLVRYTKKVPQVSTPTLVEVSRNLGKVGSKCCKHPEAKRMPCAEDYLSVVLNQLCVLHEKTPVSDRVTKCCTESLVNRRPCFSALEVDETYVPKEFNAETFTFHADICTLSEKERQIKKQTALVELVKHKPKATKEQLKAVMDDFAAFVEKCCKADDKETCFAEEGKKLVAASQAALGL
Experimental: To study the binding kinetics of the albumin-binding maytansinoids in pooled human plasma and pooled human whole blood, the compounds were incubated together with pooled human plasma at 37° C. and samples were taken at specified time points. Remaining albumin-binding maytansinoids were quantitated by HPLC.
To study the binding kinetics in human whole blood, the blood (K2EDTA, 36 donors, Zen-Bio; 900 μL) was preincubated at 37° C. for 30 min in a heating block. To study the binding kinetics in pooled human plasma, the pooled whole blood was centrifuged (10 min, 1811 g), the supernatant plasma was collected and then preincubated at 37° C. for 30 min.
The albumin-binding maytansinoid was added to the preincubated whole blood/plasma sample as a 10-fold dilution in PBS of a 1.2 mM stock solution in 2.5% propylene glycol in 10 mM sodium phosphate buffer and 1.48 mM citrate (100 μL) to produce a 12.0 μM solution of the respective albumin-binding maytansinoid. Samples (190 μL) were taken after 15 s, 2 min, 4 min, 8 min and 15 min. The samples were directly added to 760 μL MeCN containing maytansine (5 μg/mL) as an internal standard and vortexed for 1 min. After centrifugation (1 min at 12,044 g) the supernatant (850 μL) was concentrated under high vacuum. The residue was taken up in DMSO/water (1:1 v/v; 95 μL) and then analyzed by RP-HPLC. Percentage of binding was determined by comparison of the area under the curve (AUC) at 220 nm of the albumin-binding maytansinoid relative to a control sample (100% value) in PBS buffer. All experiments were performed in triplicates.
HPLC method: Phenomenex Kinetex Polar C18, 2.6 μm, 100 Å, 150×4.6 mm; eluent A (95:5 5 mM ammonium acetate: MeCN) and eluent B (5:95 5 mM ammonium acetate: MeCN) eluting with a gradient of eluent B (30% 0-0.5 min, 30-95% 0.5-9.0 min, 95% 11.0 min, 95-30% 11.0-14.5 min, 30% 15.0 min, flow rate=1.0 mL/min). Column oven temperature ambient temperature; autosampler temperature 4° C.; 50 μL of injection volume.

| SMILES | antitumor activity [1] | free maytansinoid after 24 h at pH 7.4 ([3]; measured at 200 μM) | also measured |
| --- | --- | --- | --- |
| COc1cc2cc(c1Cl)N(C)C(=O)C[C@H](OC(=O)[C@H](C)N(C)C(C)=O)[C@]1(C)O[C@H]1[C@H](C)[C@@H]1C[C@@](O)(NC(=O)O1)[C@H](OC)/C=C/C=C(\C)C2 [Maytansine, maytansine, reference compound] | principally inactive in the tested models or only showed marginal tumor inhibition | – | IC50 [2]: 220 pM |
| COc1cc2cc(c1Cl)N(C)C(=O)C[C@H](OC(=O)Cc1ccc(/C(C)=N/NC(=O)c3ccc(NC(=O)CCCCCN4C(=O)C=CC4=O)cc3S(=O)(=O)O)cc1F)[C@]1(C)O[C@H]1[C@H](C)[C@@H]1C[C@@](O)(NC(=O)O1)[C@H](OC)/C=C/C=C(\C)C2 [Compound 30] | partial and complete tumor regressions | – | free maytansinoid after 24 h at pH 7.4 ([3]; measured at 100 μM): 9.6%**; fraction unbound (albumin; blood, pooled human whole blood, 15 s): 0.017; fraction unbound (albumin; blood, pooled human whole blood, 8 min): 0.015; fraction unbound (albumin; plasma, pooled human plasma, 15 s): 0.036; fraction unbound (albumin; plasma, pooled human plasma, 8 min): 0.015 |
| COc1cc2cc(c1Cl)N(C)C(=O)C[C@H](OC(=O)COc1ccc(/C(C)=N/NC(=O)c3ccc(NC(=O)CCCCCN4C(=O)C=CC4=O)cc3S(=O)(=O)O)cc1)[C@]1(C)O[C@H]1[C@H](C)[C@@H]1C[C@@](O)(NC(=O)O1)[C@H](OC)/C=C/C=C(\C)C2 [Compound 36] | – | 4.7%* | – |
| COc1cc2cc(c1Cl)N(C)C(=O)C[C@H](OC(=O)Cc1ccc(/C(C)=N/NC(=O)c3ccc(NC(=O)CCNC(=O)[C@H](CS(=O)(=O)O)NC(=O)CCCCCN4C(=O)C=CC4=O)cc3[N+](=O)[O-])cc1)[C@]1(C)O[C@H]1[C@H](C)[C@@H]1C[C@@](O)(NC(=O)O1)[C@H](OC)/C=C/C=C(\C)C2 [Compound 33] | – | 6.5%* | – |
| COc1cc2cc(c1Cl)N(C)C(=O)C[C@H](OC(=O)CN(C)c1ccc(/C(C)=N/NC(=O)c3ccc(NC(=O)CCCCCN4C(=O)C=CC4=O)cc3S(=O)(=O)O)cc1)[C@]1(C)O[C@H]1[C@H](C)[C@@H]1C[C@@](O)(NC(=O)O1)[C@H](OC)/C=C/C=C(\C)C2 [Compound 40] | – | 8.9%* | – |
| COc1cc2cc(c1Cl)N(C)C(=O)C[C@H](OC(=O)CSc1ccc(/C(C)=N/NC(=O)c3ccc(NC(=O)CCCCCN4C(=O)C=CC4=O)cc3S(=O)(=O)O)cc1C)[C@]1(C)O[C@H]1[C@H](C)[C@@H]1C[C@@](O)(NC(=O)O1)[C@H](OC)/C=C/C=C(\C)C2 [Compound 39] | – | 9.6%* | – |
